Values belong to the molecule of their own block, whether it stands above or below them. Active and inactive are the calls of the source.
Legend:
HEK293 [1] = assay: HEK293T cell viability loss, resazurin readout – resazurin fluorescence, cytotoxicity control for NF-kB activator project, SAR follow-up (AID 493251); assay type: functional, cell-based; conditions: Homo sapiens
Tumor necrosis factor = Tumor necrosis factor (Homo sapiens, UniProt P01375); assay: analog potency on TNFa NF-kB signaling – cell-based, revised, SAR follow-up (AID 2337); assay type: functional
[2] = biological target: T1, Nucleotide-binding oligomerization domain-containing protein 1 (Homo sapiens, UniProt Q9Y239); assay: blockers of NOD1 pathway activity – revised, SAR follow-up (AID 2333); assay type: functional
T1 sequence (Q9Y239 whole entry): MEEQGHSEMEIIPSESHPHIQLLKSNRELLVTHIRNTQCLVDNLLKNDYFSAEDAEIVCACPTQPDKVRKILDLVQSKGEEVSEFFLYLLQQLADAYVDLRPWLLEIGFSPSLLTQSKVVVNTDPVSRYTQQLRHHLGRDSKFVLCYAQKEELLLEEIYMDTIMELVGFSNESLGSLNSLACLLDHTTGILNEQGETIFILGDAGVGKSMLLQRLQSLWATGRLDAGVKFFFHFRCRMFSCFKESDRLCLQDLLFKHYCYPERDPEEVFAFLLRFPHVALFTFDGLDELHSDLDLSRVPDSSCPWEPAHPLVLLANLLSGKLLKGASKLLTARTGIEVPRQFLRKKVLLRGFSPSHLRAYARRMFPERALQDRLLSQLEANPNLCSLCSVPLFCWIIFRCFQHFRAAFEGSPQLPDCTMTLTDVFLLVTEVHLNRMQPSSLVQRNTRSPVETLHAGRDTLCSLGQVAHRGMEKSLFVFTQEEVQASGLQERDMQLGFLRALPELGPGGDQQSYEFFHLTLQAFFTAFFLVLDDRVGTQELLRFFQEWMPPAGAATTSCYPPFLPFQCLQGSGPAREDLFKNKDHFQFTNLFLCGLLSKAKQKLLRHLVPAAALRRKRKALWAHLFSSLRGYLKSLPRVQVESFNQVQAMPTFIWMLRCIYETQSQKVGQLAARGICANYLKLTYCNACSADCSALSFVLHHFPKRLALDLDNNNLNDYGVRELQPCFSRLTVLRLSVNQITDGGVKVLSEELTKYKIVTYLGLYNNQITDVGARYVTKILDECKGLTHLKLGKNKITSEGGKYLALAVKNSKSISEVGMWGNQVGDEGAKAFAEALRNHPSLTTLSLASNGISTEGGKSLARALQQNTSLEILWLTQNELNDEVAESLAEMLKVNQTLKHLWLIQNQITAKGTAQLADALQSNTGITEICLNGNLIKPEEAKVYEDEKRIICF

HEK293 [3] = assay: cells; conditions: Homo sapiens
[4] = biological target: T2, G-protein coupled receptor 55 (Homo sapiens, UniProt Q9Y2T6); assay: blockers of GPR55 signalling, imaged – imaging, image-based, counter-screen for GPR35 antagonist project, SAR follow-up (AID 2397); assay type: functional
BJ [5] = assay: BJ-TERT fibroblast viability loss – cell-based, RAS-independent, luminescence, dose response (AID 1933); assay type: functional; conditions: Homo sapiens
BJ [6] = assay: cells; assay type: functional, cell-based; conditions: Homo sapiens
[7] = viability of PTEN-deleted HCT116 cells – cell-based, HCT116 PTEN knockout, dose response (AID 1047); assay type: functional;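 further: HCT116 colon tumor cells with PTEN knocked out; cells exposed to compound for 60 hours before readout; potency for loss of cell viability measured by luminescence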
[8] = viability of HCT116 lacking mutant beta-catenin – cell-based, human colon tumor, dose response (AID 1045); assay type: functional;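 further: HCT116 colon tumor cells with beta catenin knocked out; cells exposed to compound for 60 hours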
[9] = DRD fibroblast viability loss – cell-based, non-viral oncogenic, luminescence, dose response (AID 1934); assay type: functional; conditions: Homo sapiens
[10] = biological target: T2, G-protein coupled receptor 55; assay: selective activators of receptor GPR55 – imaging, U2OS cells, beta-arrestin-GFP redistribution, primary screen (AID 1961); assay type: functional
[11] = biological target: C-C chemokine receptor type 6 (Homo sapiens, UniProt P51684); assay: antagonism of CCR6 beta-arrestin recruitment – cell-based, luminescent beta-arrestin readout, dose response (AID 504728); assay type: functional
Beta-galactosidase = Beta-galactosidase (Escherichia coli, UniProt Q8VNN2); assay: detection-enzyme interference by beta-gal modulators – biochemical, E. coli enzyme, set 3, artefact control for CCR6 antagonist project, dose response (AID 504712); assay type: functional
BJ [12] = assay: growth inhibition of engineered Ras-driven BJ cells – cell-based, alamar blue fluorescence, cherrypicked samples, dose response (AID 2631); assay type: functional; conditions: Homo sapiens;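 further: confirmatory dose-response assay in RAS-dependent BJ fibroblasts engineered with TERT, LT and ST, with cytotoxicity read by fluorescence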
INS1 = assay: INS-1E survival protection against cytokine death – cell-based, luminescence, retest, dose response (AID 449756); assay type: functional; conditions: Rattus norvegicus;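 further: cell death triggered by IL-1 beta plus TNF-alpha plus IFN-gamma mixture; protective hits raise ATP signal compared with cytokine alone wells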
[13] = Fluorescence-based cell-based high throughput dose response assay for inhibitors of the interaction of nucleotide-binding oligomerization domain containing 2 (NOD2) and the receptor-interacting serine-threonine kinase 2 (RIPK2).; assay type: functional; conditions: Homo sapiens
Beta Lactamase = Beta Lactamase (Pseudomonas aeruginosa, UniProt Q932Y6); assay: BLA reporter interference, concentration series – BLA reporter cells, FRET fluorescence, artefact control for NOD2-RIPK2 interaction inhibitor project, dose response (AID 651552); assay type: functional, cell-based
[14] = viability loss in HeLa cells – cytotoxicity control for MgcRacGAP inhibitor project, dose response (AID 624300); assay type: functional
[15] = biological target: T3, Rac GTPase-activating protein 1 (Homo sapiens, UniProt Q9H0H5); assay: blockers of MgcRacGAP-driven Rac1 GTP hydrolysis – biochemical, ADP Hunter fluorescence, primary and confirmatory, confirmation (AID 624330); assay type: functional
T3 sequence (Q9H0H5 whole entry): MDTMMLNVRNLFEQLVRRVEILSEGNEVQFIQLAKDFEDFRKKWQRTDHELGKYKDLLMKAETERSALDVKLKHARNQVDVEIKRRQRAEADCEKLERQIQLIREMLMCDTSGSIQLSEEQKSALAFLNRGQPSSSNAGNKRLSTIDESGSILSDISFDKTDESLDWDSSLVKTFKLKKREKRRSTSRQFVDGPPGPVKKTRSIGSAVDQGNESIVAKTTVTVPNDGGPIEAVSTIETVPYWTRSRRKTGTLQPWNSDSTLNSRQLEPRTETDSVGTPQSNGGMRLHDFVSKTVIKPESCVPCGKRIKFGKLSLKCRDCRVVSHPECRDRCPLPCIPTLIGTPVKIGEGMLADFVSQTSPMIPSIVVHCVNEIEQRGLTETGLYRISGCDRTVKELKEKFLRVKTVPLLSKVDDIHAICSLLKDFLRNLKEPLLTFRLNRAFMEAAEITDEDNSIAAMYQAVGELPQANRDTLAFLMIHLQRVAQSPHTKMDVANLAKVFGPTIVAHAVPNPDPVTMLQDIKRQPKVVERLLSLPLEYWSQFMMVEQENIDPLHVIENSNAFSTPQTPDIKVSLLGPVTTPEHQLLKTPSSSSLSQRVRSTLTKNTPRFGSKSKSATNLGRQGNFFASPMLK

Trypsin = Trypsin (Sus scrofa, UniProt P00761); assay: trypsin protease activity blockade – biochemical, quenched peptide fluorescence, cherry-pick, selectivity assay for Rce1 protease inhibitor project, dose response (AID 488789)
CAAX prenyl protease 2 [16] = biological target: T4, CAAX prenyl protease 2 (Saccharomyces cerevisiae S288c, UniProt Q03530); assay type: biochemical
T4 sequence (Q03530 whole entry): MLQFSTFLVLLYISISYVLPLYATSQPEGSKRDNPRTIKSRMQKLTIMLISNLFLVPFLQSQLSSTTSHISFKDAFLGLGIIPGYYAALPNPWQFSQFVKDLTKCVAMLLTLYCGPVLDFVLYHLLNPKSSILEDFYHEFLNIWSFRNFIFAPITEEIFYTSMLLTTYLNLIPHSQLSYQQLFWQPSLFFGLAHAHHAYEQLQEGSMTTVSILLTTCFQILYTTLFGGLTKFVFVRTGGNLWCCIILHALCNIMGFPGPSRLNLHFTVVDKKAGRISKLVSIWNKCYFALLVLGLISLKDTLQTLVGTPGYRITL

CAAX prenyl protease 2 [17] = biological target: CAAX prenyl protease 2 (Homo sapiens, UniProt Q9Y256); assay: inhibition of Ras-converting CAAX protease Rce1 – biochemical, yeast membranes, quenched-peptide fluorescence, cherry-pick, dose response (AID 588849)
[18] = biological target: T5, Polyadenylate-binding protein 1 (Homo sapiens, UniProt P11940); assay: MLLE binding blockers, Cy5 peptide tracer – biochemical, fluorescence polarization, Cy5-PAM2 peptide, secondary, miRNA deadenylation inhibitor project, dose response (AID 602260); assay type: functional; conditions: read-out: IC50_Mean
[19] = biological target: T5, Polyadenylate-binding protein 1; assay: MLLE domain peptide-binding blockers, IC50 – biochemical, fluorescence polarization, FITC-PAM2 peptide, dose response (AID 602259); assay type: functional; conditions: read-out: IC50_Mean
[20] = biological target: Beta-2 adrenergic receptor (Homo sapiens, UniProt P07550); assay: ADRB2 activation measured by internalization – cell-based, FAP fluorogen, flow cytometry, cherry pick 1, dose response (AID 588763); assay type: functional
[21] = biological target: T6, Mannose-6-phosphate isomerase (Homo sapiens, UniProt P34949); assay: phosphomannose isomerase inhibition – biochemical, fluorescence intensity, confirmation (AID 1535)
T6 sequence (P34949 whole entry): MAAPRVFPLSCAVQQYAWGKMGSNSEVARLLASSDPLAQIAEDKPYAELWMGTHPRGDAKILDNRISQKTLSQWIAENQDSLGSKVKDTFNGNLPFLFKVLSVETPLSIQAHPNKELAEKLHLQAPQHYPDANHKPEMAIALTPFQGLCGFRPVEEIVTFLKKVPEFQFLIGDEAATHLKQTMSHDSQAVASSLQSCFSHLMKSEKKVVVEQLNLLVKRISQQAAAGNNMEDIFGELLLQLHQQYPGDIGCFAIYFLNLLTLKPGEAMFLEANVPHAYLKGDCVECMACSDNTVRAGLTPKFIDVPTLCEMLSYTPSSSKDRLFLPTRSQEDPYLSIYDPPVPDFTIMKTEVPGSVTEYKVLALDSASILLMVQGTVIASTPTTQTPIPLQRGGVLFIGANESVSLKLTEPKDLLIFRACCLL

T2 sequence (Q9Y2T6 whole entry): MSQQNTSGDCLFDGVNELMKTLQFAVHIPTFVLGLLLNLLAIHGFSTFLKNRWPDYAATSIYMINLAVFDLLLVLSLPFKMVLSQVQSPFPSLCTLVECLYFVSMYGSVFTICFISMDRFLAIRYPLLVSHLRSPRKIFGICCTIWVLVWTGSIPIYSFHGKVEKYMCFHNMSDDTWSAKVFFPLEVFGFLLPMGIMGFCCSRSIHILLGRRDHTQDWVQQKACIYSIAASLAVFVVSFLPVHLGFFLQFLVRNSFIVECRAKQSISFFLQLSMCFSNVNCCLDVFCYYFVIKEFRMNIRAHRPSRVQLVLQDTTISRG
T5 sequence (P11940 whole entry, the tested form may be a part): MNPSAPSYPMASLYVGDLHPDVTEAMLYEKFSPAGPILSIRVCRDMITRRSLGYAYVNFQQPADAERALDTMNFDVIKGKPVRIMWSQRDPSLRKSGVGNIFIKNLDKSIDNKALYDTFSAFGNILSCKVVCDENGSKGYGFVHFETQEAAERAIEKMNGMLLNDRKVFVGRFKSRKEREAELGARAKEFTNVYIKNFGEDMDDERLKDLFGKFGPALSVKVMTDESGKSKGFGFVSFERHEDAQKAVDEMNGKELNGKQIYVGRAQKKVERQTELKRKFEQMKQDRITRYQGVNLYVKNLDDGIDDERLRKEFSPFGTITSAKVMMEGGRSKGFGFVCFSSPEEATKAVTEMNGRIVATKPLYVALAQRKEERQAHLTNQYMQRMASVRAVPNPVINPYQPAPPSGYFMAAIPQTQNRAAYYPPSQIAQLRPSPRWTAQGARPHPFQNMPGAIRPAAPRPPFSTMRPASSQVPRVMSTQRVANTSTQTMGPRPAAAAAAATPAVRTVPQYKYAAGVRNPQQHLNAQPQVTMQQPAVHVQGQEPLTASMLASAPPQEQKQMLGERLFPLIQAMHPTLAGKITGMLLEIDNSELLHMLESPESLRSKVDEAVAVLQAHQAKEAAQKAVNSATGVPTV
Tumor necrosis factor, sequence (P01375 whole entry, the tested form may be a part): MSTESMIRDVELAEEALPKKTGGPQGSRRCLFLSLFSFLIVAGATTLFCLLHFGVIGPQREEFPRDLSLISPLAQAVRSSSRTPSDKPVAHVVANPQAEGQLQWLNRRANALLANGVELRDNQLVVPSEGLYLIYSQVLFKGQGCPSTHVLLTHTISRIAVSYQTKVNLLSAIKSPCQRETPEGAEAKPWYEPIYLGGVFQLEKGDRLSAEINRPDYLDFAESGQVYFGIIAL
Trypsin, sequence (P00761 whole entry): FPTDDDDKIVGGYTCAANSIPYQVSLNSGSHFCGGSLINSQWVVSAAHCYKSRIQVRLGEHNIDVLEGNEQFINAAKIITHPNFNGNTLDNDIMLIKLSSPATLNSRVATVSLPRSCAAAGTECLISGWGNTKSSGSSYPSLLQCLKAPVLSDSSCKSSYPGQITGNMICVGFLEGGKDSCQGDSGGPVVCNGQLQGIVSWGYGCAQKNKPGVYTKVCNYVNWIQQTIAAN
Beta-2 adrenergic receptor, sequence (P07550 whole entry): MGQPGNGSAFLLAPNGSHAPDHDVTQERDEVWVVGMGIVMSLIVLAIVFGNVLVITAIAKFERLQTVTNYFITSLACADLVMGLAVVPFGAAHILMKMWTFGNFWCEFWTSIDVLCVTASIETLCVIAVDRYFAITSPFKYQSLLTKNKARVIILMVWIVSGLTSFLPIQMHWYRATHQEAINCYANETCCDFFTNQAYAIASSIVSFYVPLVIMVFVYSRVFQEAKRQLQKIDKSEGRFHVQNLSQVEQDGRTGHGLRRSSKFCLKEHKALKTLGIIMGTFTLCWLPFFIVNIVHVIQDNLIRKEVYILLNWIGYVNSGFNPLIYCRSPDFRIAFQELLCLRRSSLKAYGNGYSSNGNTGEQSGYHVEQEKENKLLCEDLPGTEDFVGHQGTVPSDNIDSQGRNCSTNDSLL
Beta Lactamase, sequence (Q932Y6 whole entry): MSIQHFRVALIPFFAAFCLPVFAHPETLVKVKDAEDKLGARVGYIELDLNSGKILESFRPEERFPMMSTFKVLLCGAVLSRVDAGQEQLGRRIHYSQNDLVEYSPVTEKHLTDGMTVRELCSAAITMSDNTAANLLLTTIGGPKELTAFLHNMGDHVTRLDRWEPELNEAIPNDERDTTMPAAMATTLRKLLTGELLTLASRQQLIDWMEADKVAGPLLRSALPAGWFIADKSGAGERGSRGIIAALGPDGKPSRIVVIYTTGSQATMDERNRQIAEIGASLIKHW
Beta-galactosidase, sequence (Q8VNN2 whole entry): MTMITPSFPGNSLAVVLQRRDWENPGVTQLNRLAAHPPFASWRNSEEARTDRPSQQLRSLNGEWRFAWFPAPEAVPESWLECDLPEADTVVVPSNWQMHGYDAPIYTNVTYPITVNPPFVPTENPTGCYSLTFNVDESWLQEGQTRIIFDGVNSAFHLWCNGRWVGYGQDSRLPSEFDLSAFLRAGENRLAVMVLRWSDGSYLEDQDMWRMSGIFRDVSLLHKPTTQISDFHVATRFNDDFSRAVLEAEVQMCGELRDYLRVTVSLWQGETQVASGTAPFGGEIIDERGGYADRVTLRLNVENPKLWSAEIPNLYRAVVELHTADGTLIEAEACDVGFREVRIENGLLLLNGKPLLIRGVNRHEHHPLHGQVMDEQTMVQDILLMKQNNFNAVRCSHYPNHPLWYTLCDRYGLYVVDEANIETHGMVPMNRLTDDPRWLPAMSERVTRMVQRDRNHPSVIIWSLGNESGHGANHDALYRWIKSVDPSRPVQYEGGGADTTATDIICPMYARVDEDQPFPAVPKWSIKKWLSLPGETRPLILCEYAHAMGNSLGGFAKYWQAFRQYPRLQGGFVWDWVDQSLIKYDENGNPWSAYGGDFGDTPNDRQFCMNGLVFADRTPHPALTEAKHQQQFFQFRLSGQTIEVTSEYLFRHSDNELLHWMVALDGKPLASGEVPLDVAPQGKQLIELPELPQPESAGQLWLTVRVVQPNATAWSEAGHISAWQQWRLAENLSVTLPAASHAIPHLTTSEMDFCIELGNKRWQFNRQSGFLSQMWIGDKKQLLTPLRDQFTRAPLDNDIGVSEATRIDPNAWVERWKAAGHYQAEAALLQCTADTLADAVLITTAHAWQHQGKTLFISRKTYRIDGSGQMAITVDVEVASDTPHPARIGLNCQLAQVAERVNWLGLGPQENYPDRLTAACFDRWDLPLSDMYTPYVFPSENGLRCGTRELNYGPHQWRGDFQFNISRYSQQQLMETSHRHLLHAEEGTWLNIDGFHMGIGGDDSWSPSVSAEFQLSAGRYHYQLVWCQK
C-C chemokine receptor type 6, sequence (P51684 whole entry): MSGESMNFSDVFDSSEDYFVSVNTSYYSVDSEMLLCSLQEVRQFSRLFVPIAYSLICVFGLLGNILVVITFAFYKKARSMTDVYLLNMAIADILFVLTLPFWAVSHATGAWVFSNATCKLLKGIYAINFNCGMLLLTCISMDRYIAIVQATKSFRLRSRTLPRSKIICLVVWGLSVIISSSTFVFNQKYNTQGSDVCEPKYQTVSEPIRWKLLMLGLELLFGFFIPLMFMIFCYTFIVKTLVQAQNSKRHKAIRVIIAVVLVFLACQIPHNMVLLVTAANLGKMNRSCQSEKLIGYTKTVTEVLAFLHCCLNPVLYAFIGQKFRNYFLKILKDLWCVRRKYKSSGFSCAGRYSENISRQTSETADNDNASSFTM
CAAX prenyl protease 2 (Homo sapiens, UniProt Q9Y256), sequence (Q9Y256 whole entry): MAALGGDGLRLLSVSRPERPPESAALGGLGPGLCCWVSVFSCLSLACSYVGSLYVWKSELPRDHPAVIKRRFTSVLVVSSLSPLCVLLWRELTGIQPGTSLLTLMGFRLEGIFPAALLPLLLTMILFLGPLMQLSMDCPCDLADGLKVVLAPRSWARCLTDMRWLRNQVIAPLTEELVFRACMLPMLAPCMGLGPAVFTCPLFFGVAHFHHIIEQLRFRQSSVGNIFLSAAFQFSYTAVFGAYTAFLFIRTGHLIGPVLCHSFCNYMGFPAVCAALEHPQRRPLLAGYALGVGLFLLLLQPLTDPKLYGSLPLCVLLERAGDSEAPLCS

SMILES: O=C(O)CCc1nc(-c2ccccc2)no1
IC50 (HEK293 [1]): > 80 µM (inactive)

SMILES: CCc1cc(C(=O)NC2CCCc3c2cnn3-c2ccc(F)cc2F)no1 (stereo not given)
IC50 (Tumor necrosis factor): > 20 µM (inactive)
IC50 [2]: 10.4 µM (active)
IC50 (HEK293 [3]): > 20 µM (inactive)

IC50 [4]: > 32 µM (inactive)
SMILES: COC(=O)CSc1nc2ccc(NC(=O)c3ccccc3C(=O)N3CCOCC3)cc2s1

IC50 [4]: 29.1 µM (inactive)
SMILES: c1ccc(Cn2ncc3c(N4CCN(c5ccccc5)CC4)ncnc32)cc1

SMILES: COC(=O)c1ccc2c(c1)C(C)(C)C(/C=C/c1ccc(OC)c(OC)c1OC)=[N+]2C
EC50 (BJ [5]): 3.9 µM (inconclusive)
EC50 (BJ [6]): 14.4 µM (active)
EC50 [7]: 5.04 µM (active)
EC50 [8]: 3.84 µM (active)
EC50 [9]: 3.71 µM (active)
EC50 [10]: 1.51 µM (active)
IC50 [11]: 21.4 µM (inactive)
IC50 (Beta-galactosidase): > 66.6 µM (inactive)
EC50 (BJ [12]): 1.3 µM (inconclusive)
AC50 (INS1): 2.09 µM (active)
IC50 [13]: 1.93 µM (active)
IC50 (Beta Lactamase): 39.1 µM (inactive)
CC50 [14]: 60.4 µM (active)
IC50 [15]: 25.7 µM (active)

AC50 (Trypsin): 12.5 µM (active)
AC50 (CAAX prenyl protease 2 [16]): 9.58 µM (active)
AC50 (CAAX prenyl protease 2 [17]): 5.84 µM (active)
IC50 [18]: > 66 µM (inactive)
IC50 [19]: > 66 µM (inactive)
SMILES: COC(=O)Nc1nnc(-c2ccncc2)s1

EC50 [20]: 0.0203 µM (active)
SMILES: CCCCN(CCCC)c1nc2ccccc2nc1NS(=O)(=O)c1ccc(NC(C)=O)cc1

SMILES: CCOC(=O)c1ccc(NC(=O)c2ccc(CCN3CCc4ccccc4C3)cc2)cc1
IC50 (Tumor necrosis factor): 10.8 µM (active)
IC50 [2]: 10.6 µM (active)
IC50 (HEK293 [3]): > 20 µM (inactive)

IC50 [21]: 98.1 µM (active)
SMILES: Clc1nss/c1=N\c1nc2ccccc2[nH]1
